# Measurements from patent EP0745595A1, “3-(3-Aryloxyphenyl)-1-(substituted methyl)-s-triazine-2,4,6-oxo or thiotrione herbicidal agents” (American Cyanamid Company, priority 1995, dated 1996).
# Tests used:
# Type in all cases: in vivo
# CHENOPODIUM ALBUM, L. [1] = assay: Preemergence herbicidal evaluation, CHEAL (Lambsquarters, Common); conditions: four to five weeks after treatment
# Method in brief: (§1)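 Injury scored visually (0–9; stand, vigor, malformation, size, chlorosis) versus untreated control, four to five weeks post-treatment. Application: aqueous acetone spray onto freshly planted soil cups, equivalent to about 0.125 to 0.50 kg/ha, plants then kept under standard greenhouse care.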
# [2] = tested on: TRITICUM AESTIVUM, CV. APOLLO; assay: Preemergence herbicidal evaluation, TRZAWO (Wheat, Winter, CV. APOLLO); conditions: four to five weeks after treatment
# Method in brief: as §1
# [3] = tested on: ABUTILON THEOPHRASTI, MEDIC.; assay: Preemergence herbicidal evaluation, ABUTH (Velvetleaf); conditions: four to five weeks after treatment
# From the text: (§2) Results of herbicide evaluation are expressed on a rating scale (0-9). The scale is based upon a visual observation of plant stand, vigor, malformation, size, chlorosis and overall plant appearance as compared with a control.
# (§3) The preemergence herbicidal activity of the test compounds of the present invention is exemplified by the following tests in which the seeds of a variety of monocotyledonous and dicotyledonous plants are separately mixed with potting soil and planted on top of approximately one inch of soil in separate pint cups. […] The treated cups are then placed on greenhouse benches, watered and cared for in accordance with conventional greenhouse procedures. From four to five weeks after treatment, the tests are terminated and each cup is examined and rated according to the rating system provided in Example 40.
# (§4) The compounds evaluated are reported by compound number given in Example 40.
# [4] = tested on: AMBROSIA ARTEMISIIFOLIA, L.; assay: Preemergence herbicidal evaluation, AMBEL (Ragweed, Common); conditions: four to five weeks after treatment
# Method in brief: as §1
# [5] = tested on: ORYZA SATIVA, L. TEBONNET; assay: Preemergence herbicidal evaluation, ORYSAT (Rice, Tebonnet); conditions: four to five weeks after treatment
# From the text: as §2, §3, §4
# [6] = tested on: ECHINOCHLOA CRUS-GALLI, (L) BEAU; assay: Preemergence herbicidal evaluation, ECHCG (Barnyardgrass); conditions: four to five weeks after treatment
# Method in brief: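 In this preemergence herbicide test, cups holding seeds of ECHCG sown in potting soil over roughly one inch of soil were treated and then grown under conventional greenhouse care. Tests were ended four to five weeks after treatment, and injury was scored 0-9 from stand, vigor, malformation, size, chlorosis and overall appearance relative to a control.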
# CHENOPODIUM ALBUM, L. [7] = assay: Postemergence herbicidal evaluation, CHEAL (Lambsquarters, Common); conditions: rated four to five weeks after treatment, averaged
# Method in brief: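 Postemergence herbicidal activity on Chenopodium album was tested by spraying two-week-old seedlings grown in jiffy flats with compound in acetone/water (50/50) plus 0.5% TWEEN®20, using a 40 psi nozzle. Four to five weeks after treatment, stand, vigor, malformation, size, chlorosis and overall appearance were scored 0-9 relative to controls, with repeat tests averaged.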
# [8] = tested on: ORYZA SATIVA, L. TEBONNET; assay: Rice tolerance to post-transplant applications under flooded paddy conditions, ORYSAT (Rice, Tebonnet); conditions: post-transplant rice, rated three to four weeks after treatment;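 note: applied to flooded soil surface three days after transplanting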
# Method in brief: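 Visual 0-9 rating against untreated control (stand, vigor, malformation, size, chlorosis, overall appearance), taken 3-4 weeks after treatment. Flooded silt loam, water at 1.5-3 cm; two 10-day-old seedlings per pot; compound applied to flooded soil surface 3 days post-transplant at ~0.5-0.063 kg/ha.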
# SAGITTARIA PYGMAEA, L. = assay: Preemergence weed control under flooded paddy conditions, SAGPY (Arrowhead (Pygmaea)); conditions: preemergence weeds, rated three to four weeks after treatment
# Method in brief: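 Visual 0-9 score (stand, vigor, malformation, size, chlorosis, appearance vs untreated control) taken 3-4 wk after treatment. Test compounds were added into flood water (1.5-3 cm over silt loam) as 50/50 v/v aqueous/acetone, equivalent to about 0.5-0.063 kg/ha a.i.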
# [9] = tested on: SETARIA VIRIDIS, (L) BEAU; assay: Preemergence herbicidal evaluation, SETVI (Foxtail, Green); conditions: four to five weeks after treatment
# From the text: as §2, §3, §4
# ZEA MAYS L. = assay: Preemergence herbicidal evaluation, ZEAMX (Corn, Field); conditions: four to five weeks after treatment
# Method in brief: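 Preemergence herbicidal activity on field corn: seeds in potting soil were sown atop roughly one inch of soil in separate pint cups, treated, and grown under standard greenhouse care. Four to five weeks post-treatment, stand, vigor, malformation, size, chlorosis and overall appearance were compared with a control and scored 0-9.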
# IPOMOEA SPP. = assay: Preemergence herbicidal evaluation, IPOSS (Morningglory spp.); conditions: four to five weeks after treatment
# Method in brief: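 This preemergence greenhouse test scored herbicidal effect on morningglory planted in pint cups, with seed mixed into potting soil and placed over about one inch of soil. After treatment the cups were watered and kept under conventional care. At four to five weeks, plant stand, vigor, malformation, size, chlorosis and overall appearance were compared with a control and rated 0-9.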
# [10] = tested on: GLYCINE MAX(L) MERR. CV. WILLIAMS; assay: Preemergence herbicidal evaluation, GLXMAW (Soybean, Williams); conditions: four to five weeks after treatment
# Method in brief: as §1
smiles,measurement,setting,value
"CCOC(=O)Cn1c(=O)n(CC(=O)OC)c(=O)n(-c2cc(Oc3c(F)cc(C(F)(F)F)cc3Cl)ccc2C#N)c1=O [Compound 12, 1-Ethyl methyl 5-{5-[(2-chloro-α,α,α,6-tetrafluoro-p-tolyl)oxy]-2-cyanophenyl}-dihydro-2,4,6-trioxo-s-triazine-1,3(2H,4H)-diacetate]",CHEAL rating,"CHENOPODIUM ALBUM, L. [1]; Rate 0.125 kg/ha",0.0
same,CHEAL rating,"CHENOPODIUM ALBUM, L. [1]; Rate 0.250 kg/ha",0.0
same,CHEAL rating,"CHENOPODIUM ALBUM, L. [1]; Rate 0.500 kg/ha",0.0
same,TRZAWO rating,[2]; Rate 0.125 kg/ha,0.0
same,TRZAWO rating,[2]; Rate 0.250 kg/ha,0.0
same,TRZAWO rating,[2]; Rate 0.500 kg/ha,0.0
same,ABUTH rating,[3]; Rate 0.125 kg/ha,0.0
same,ABUTH rating,[3]; Rate 0.250 kg/ha,0.0
same,ABUTH rating,[3]; Rate 0.500 kg/ha,0.0
same,AMBEL rating,[4]; Rate 0.125 kg/ha,0.0
same,AMBEL rating,[4]; Rate 0.250 kg/ha,0.0
same,AMBEL rating,[4]; Rate 0.500 kg/ha,0.0
same,ORYSAT rating,[5]; Rate 0.125 kg/ha,0.0
same,ORYSAT rating,[5]; Rate 0.250 kg/ha,0.0
same,ORYSAT rating,[5]; Rate 0.500 kg/ha,0.0
same,ECHCG rating,[6]; Rate 0.125 kg/ha,0.0
same,ECHCG rating,[6]; Rate 0.250 kg/ha,0.0
same,ECHCG rating,[6]; Rate 0.500 kg/ha,0.0
same,"CHEAL, herbicide rating (0-9)","CHENOPODIUM ALBUM, L. [7]; Rate 0.125 kg/ha",9.0
same,"CHEAL, herbicide rating (0-9)","CHENOPODIUM ALBUM, L. [7]; Rate 0.250 kg/ha",9.0
same,"CHEAL, herbicide rating (0-9)","CHENOPODIUM ALBUM, L. [7]; Rate 0.500 kg/ha",9.0
same,ORYSAT herbicidal rating (rice tolerance),[8]; Rate 0.063 kg/ha,0.0
same,ORYSAT herbicidal rating (rice tolerance),[8]; Rate 0.125 kg/ha,0.0
same,ORYSAT herbicidal rating (rice tolerance),[8]; Rate 0.250 kg/ha,0.0
same,ORYSAT herbicidal rating (rice tolerance),[8]; Rate 0.500 kg/ha,1.0
same,SAGPY herbicidal rating,"SAGITTARIA PYGMAEA, L.; Rate 0.063 kg/ha",0.0
same,SAGPY herbicidal rating,"SAGITTARIA PYGMAEA, L.; Rate 0.125 kg/ha",0.0
same,SAGPY herbicidal rating,"SAGITTARIA PYGMAEA, L.; Rate 0.250 kg/ha",0.0
same,SAGPY herbicidal rating,"SAGITTARIA PYGMAEA, L.; Rate 0.500 kg/ha",0.0
same,SETVI rating,[9]; Rate 0.125 kg/ha,0.0
same,SETVI rating,[9]; Rate 0.250 kg/ha,0.0
same,SETVI rating,[9]; Rate 0.500 kg/ha,0.0
same,ZEAMX rating,ZEA MAYS L.; Rate 0.125 kg/ha,0.0
same,ZEAMX rating,ZEA MAYS L.; Rate 0.250 kg/ha,0.0
same,ZEAMX rating,ZEA MAYS L.; Rate 0.500 kg/ha,0.0
same,IPOSS rating,IPOMOEA SPP.; Rate 0.125 kg/ha,0.0
same,IPOSS rating,IPOMOEA SPP.; Rate 0.250 kg/ha,0.0
same,IPOSS rating,IPOMOEA SPP.; Rate 0.500 kg/ha,0.0
same,GLXMAW rating,[10]; Rate 0.125 kg/ha,0.0
same,GLXMAW rating,[10]; Rate 0.250 kg/ha,0.0
same,GLXMAW rating,[10]; Rate 0.500 kg/ha,0.0
